Assays:
Type in all cases: cell-based
[1] = tested on: Spores (B. subtilis); experiment: Microbial challenge test (MCT) in sucrose-zero vanilla syrup, spores; settings: for spores count: single concentration as printed in the row; for spores count, Max.: Max. concentration of agent; for spores count, Min.: Min. concentration of agent
Experimental: (§1) Subsequently, the microbial challenge test (MCT) was conducted in the following order. The experiment was applied to the vanilla syrup, which is the representative among the sucrose syrup, the vanilla syrup, and the red grapefruit syrup, and the applied strains and analysis conditions are shown in Table 14.
(§2) The microbial challenge test (MCT) experiment conditions are as follows: 1) prepare a sucrose-zero vanilla syrup; 2) prepare general bacteria/fungi/spores that have completed proliferation; 3) inject 10^3 cfu/ml of bacteria into a sterilized glass container (100 ml); 4) fill 3) with sucrose-zero vanilla syrup at the filling temperature (80° C. or higher); 5) let it stand after cooling; 6) one day after the cooling of the stationary sample was completed, culture was performed on a weekly basis; and 7) verify the trend of bacterial proliferation or decline for each natural antibacterial agent for 4 weeks.

[2] = tested on: Fungi (Asp. niger); experiment: Microbial challenge test (MCT) in sucrose-zero vanilla syrup, fungi; settings: for fungi count: single concentration as printed in the row; for fungi count, Max.: Max. concentration of agent; for fungi count, Min.: Min. concentration of agent
Experimental: as §1, §2

[3] = tested on: General bacteria, bacteria derived from flavor syrup; experiment: Microbial challenge test (MCT) in sucrose-zero vanilla syrup, general bacteria; settings: for general bacteria count: single concentration as printed in the row; for general bacteria count, Max.: Max. concentration of agent; for general bacteria count, Min.: Min. concentration of agent
Experimental: as §1, §2

[4] = tested on: Fungi (Asp. niger); experiment: Minimum inhibitory concentration (MIC), paper disc diffusion method, fungi; settings: legend not given
Experimental: (§3) [table] The minimum inhibitory concentration (MIC) was conducted to confirm the antibacterial activity of each antibacterial agent and the minimum concentration showing antibacterial activity against the target strain, and the paper disc diffusion method was used as the experimental method. […] It was confirmed that if the bacteria had antibacterial activity, the proliferation of bacteria was inhibited as a clear zone was created around the paper.

[5] = tested on: General bacteria (T.A.B), bacteria derived from flavor syrup; experiment: Minimum inhibitory concentration (MIC), paper disc diffusion method, general bacteria; settings: legend not given
Experimental: as §3

[6] = tested on: Spores (B. subtilis); experiment: Minimum inhibitory concentration (MIC), paper disc diffusion method, spores; settings: legend not given
Experimental: as §3

[7] = immediately after inoculation of target bacteria

## C/C=C/C=C/C(=O)[O-].[K+] [Potassium sorbate, reference compound]
[1]; after 1 week
  spores count: 873
[1]; after 2 weeks
  spores count: 876
[1]; after 3 weeks
  spores count: 850
[1]; after 4 weeks
  spores count: 860
[1]; [7]
  spores count: 880
[2]; after 1 week
  fungi count: 63
[2]; after 2 weeks
  fungi count: 66
[2]; after 3 weeks
  fungi count: 60
[2]; after 4 weeks
  fungi count: 58
[2]; [7]
  fungi count: 68
[3]; after 1 week
  general bacteria count: 93
[3]; after 2 weeks
  general bacteria count: 83
[3]; after 3 weeks
  general bacteria count: 80
[3]; after 4 weeks
  general bacteria count: 78
[3]; [7]
  general bacteria count: 98
[4]; 300 ppm
  Antibacterial activity (clear zone), fungi: ∘
[4]; 400 ppm
  Antibacterial activity (clear zone), fungi: ∘
[4]; 500 ppm
  Antibacterial activity (clear zone), fungi: ∘
[4]; 1,000 ppm
  Antibacterial activity (clear zone), fungi: ∘
[5]; 300 ppm
  Antibacterial activity (clear zone), general bacteria (T.A.B): ∘
[5]; 400 ppm
  Antibacterial activity (clear zone), general bacteria (T.A.B): ∘
[5]; 500 ppm
  Antibacterial activity (clear zone), general bacteria (T.A.B): ∘
[5]; 1,000 ppm
  Antibacterial activity (clear zone), general bacteria (T.A.B): ∘
[6]; 300 ppm
  Antibacterial activity (clear zone), spores: ∘
[6]; 400 ppm
  Antibacterial activity (clear zone), spores: ∘
[6]; 500 ppm
  Antibacterial activity (clear zone), spores: ∘
[6]; 1,000 ppm
  Antibacterial activity (clear zone), spores: ∘

## E-polylisine [E-polylysine]
[1]; after 1 week
  spores count, Max.: 720
  spores count, Min.: 870
[1]; after 2 weeks
  spores count, Max.: 773
  spores count, Min.: 850
[1]; after 3 weeks
  spores count, Max.: 780
  spores count, Min.: 800
[1]; after 4 weeks
  spores count, Max.: 720
  spores count, Min.: 830
[1]; [7]
  spores count, Max.: 720
  spores count, Min.: 880
[2]; after 1 week
  fungi count, Max.: 135
  fungi count, Min.: 147
[2]; after 2 weeks
  fungi count, Max.: 130
  fungi count, Min.: 137
[2]; after 3 weeks
  fungi count, Max.: 128
  fungi count, Min.: 130
[2]; after 4 weeks
  fungi count, Max.: 125
  fungi count, Min.: 128
[2]; [7]
  fungi count, Max.: 138
  fungi count, Min.: 150
[3]; after 1 week
  general bacteria count, Max.: 126
  general bacteria count, Min.: 129
[3]; after 2 weeks
  general bacteria count, Max.: 115
  general bacteria count, Min.: 120
[3]; after 3 weeks
  general bacteria count, Max.: 110
  general bacteria count, Min.: 120
[3]; after 4 weeks
  general bacteria count, Max.: 108
  general bacteria count, Min.: 110
[3]; [7]
  general bacteria count, Max.: 129
  general bacteria count, Min.: 132
[4]; 400 ppm
  Antibacterial activity (clear zone), fungi: ∘
[4]; 500 ppm
  Antibacterial activity (clear zone), fungi: ∘
[4]; 1,000 ppm
  Antibacterial activity (clear zone), fungi: ∘
[5]; 200 ppm
  Antibacterial activity (clear zone), general bacteria (T.A.B): ∘
[5]; 300 ppm
  Antibacterial activity (clear zone), general bacteria (T.A.B): ∘
[5]; 400 ppm
  Antibacterial activity (clear zone), general bacteria (T.A.B): ∘
[5]; 500 ppm
  Antibacterial activity (clear zone), general bacteria (T.A.B): ∘
[5]; 1,000 ppm
  Antibacterial activity (clear zone), general bacteria (T.A.B): ∘
[6]; 400 ppm
  Antibacterial activity (clear zone), spores: ∘
[6]; 500 ppm
  Antibacterial activity (clear zone), spores: ∘
[6]; 1,000 ppm
  Antibacterial activity (clear zone), spores: ∘

— patent publication US20250024870A1, “NATURAL SUGAR-FREE SYRUP, AND PRODUCTION METHOD THEREOF” (CJ CHEILJEDANG CORPORATION, priority 2021, published 2025)
